Reference: ChEMBL document CHEMBL1156471, “Targeting host cell furin proprotein convertases as a therapeutic strategy against bacterial toxins and viral pathogens” (J Biol Chem, 2007)
Activity calls are given as the source filed them. The calls are words filed in the database; no cut-off is given here. Non-standard residues stand in square brackets, D forms with d. Residues, ends and D or L forms follow the SMILES beside them. βAla = NCCC(=O)O

How the values were obtained:
Bacillus anthracis [1] = test: Protection against Bacillus anthracis Sterne spores infected A/J mouse assessed as survival at 25 mg/kg, sc administered daily after 4 days post infection; format: functional; conditions: route subcutaneous
Bacillus anthracis [2] = test: Protection against Bacillus anthracis Sterne spores infected A/J mouse at 12.5 mg/kg, ip administered once daily for 6 days; format: functional; conditions: route intraperitoneal
Bacillus anthracis [3] = test: Protection against Bacillus anthracis Sterne spores infected A/J mouse assessed as survival at 12.5 mg/kg, ip administered once daily for 6 days; format: functional; conditions: route intraperitoneal
Mus musculus = test: Protection against Pseudomonas exotoxin A-induced toxicity in C57BL/6 mouse assessed as survival at 12.5 mg/kg, ip once daily administered 1 hr prior to toxin challenge; format: functional; conditions: C57BL/6, ip, route intraperitoneal
U-251 [4] = test: Protection against anthrax PA63-lethal toxin complex-induced cytotoxicity in human U251 cells at 20 uM at 400 ng/ml by MTT test; format: cell-based
[5] = biological target: Proprotein convertase subtilisin/kexin type 5 (Homo sapiens, UniProt Q92824)
Proprotein convertase subtilisin/kexin type 5, sequence (Q92824 whole entry): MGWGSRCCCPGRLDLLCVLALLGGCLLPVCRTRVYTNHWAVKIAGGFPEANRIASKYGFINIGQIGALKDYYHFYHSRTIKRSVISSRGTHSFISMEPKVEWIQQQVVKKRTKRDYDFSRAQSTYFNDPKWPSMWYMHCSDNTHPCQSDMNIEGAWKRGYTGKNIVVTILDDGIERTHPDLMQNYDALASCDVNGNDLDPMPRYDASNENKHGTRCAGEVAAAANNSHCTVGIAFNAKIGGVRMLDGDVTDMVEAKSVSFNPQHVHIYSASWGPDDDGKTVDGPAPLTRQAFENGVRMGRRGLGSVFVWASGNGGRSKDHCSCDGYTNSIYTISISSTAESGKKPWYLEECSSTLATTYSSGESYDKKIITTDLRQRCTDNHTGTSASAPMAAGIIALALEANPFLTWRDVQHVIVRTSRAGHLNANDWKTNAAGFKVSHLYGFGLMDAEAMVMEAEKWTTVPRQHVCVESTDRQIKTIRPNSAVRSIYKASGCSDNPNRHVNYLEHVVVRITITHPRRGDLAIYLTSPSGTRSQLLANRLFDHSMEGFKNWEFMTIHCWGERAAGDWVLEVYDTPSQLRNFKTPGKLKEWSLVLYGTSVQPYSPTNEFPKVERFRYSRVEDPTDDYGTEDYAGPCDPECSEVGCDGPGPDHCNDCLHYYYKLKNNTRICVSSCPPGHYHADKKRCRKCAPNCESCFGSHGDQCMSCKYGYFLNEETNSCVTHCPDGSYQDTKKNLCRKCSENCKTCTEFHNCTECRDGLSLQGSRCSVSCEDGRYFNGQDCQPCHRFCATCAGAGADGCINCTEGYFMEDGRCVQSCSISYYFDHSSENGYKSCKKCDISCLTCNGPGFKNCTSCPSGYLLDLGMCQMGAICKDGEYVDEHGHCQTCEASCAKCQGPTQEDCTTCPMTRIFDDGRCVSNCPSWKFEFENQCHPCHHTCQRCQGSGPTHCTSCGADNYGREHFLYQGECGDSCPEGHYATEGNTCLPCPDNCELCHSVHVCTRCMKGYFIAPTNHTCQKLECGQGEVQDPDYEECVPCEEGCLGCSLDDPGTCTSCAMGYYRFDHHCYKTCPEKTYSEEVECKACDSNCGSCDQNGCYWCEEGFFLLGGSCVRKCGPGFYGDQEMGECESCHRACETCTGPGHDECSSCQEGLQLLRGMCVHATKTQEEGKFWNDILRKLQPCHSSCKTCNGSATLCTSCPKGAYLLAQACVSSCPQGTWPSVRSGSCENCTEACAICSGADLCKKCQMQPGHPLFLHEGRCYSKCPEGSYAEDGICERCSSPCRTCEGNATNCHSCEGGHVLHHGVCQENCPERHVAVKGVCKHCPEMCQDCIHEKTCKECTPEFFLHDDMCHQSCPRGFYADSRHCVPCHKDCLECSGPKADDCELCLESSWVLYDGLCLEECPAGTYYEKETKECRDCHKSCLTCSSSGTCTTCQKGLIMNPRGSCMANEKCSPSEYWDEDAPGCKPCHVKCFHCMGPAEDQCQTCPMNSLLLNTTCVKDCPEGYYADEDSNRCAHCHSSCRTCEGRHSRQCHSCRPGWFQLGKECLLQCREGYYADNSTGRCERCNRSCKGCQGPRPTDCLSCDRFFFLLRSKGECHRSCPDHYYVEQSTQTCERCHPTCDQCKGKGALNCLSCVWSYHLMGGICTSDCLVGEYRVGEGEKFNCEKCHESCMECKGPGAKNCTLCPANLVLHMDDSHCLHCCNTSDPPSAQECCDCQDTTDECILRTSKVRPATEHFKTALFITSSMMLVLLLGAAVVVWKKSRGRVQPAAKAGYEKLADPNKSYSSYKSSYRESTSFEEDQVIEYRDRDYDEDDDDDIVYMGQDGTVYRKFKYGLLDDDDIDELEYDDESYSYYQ

U-251 [6] = test: Inhibition of proprotein convertase-dependent delivery of PA63-lethal toxin complex into cytosol in human U251 cells at 20 uM; format: cell-based; conditions: Bacillus anthracis
[7] = biological target: T1, Proprotein convertase subtilisin/kexin type 6 (Rattus norvegicus, UniProt Q63415)
T1 sequence (Q63415 whole entry): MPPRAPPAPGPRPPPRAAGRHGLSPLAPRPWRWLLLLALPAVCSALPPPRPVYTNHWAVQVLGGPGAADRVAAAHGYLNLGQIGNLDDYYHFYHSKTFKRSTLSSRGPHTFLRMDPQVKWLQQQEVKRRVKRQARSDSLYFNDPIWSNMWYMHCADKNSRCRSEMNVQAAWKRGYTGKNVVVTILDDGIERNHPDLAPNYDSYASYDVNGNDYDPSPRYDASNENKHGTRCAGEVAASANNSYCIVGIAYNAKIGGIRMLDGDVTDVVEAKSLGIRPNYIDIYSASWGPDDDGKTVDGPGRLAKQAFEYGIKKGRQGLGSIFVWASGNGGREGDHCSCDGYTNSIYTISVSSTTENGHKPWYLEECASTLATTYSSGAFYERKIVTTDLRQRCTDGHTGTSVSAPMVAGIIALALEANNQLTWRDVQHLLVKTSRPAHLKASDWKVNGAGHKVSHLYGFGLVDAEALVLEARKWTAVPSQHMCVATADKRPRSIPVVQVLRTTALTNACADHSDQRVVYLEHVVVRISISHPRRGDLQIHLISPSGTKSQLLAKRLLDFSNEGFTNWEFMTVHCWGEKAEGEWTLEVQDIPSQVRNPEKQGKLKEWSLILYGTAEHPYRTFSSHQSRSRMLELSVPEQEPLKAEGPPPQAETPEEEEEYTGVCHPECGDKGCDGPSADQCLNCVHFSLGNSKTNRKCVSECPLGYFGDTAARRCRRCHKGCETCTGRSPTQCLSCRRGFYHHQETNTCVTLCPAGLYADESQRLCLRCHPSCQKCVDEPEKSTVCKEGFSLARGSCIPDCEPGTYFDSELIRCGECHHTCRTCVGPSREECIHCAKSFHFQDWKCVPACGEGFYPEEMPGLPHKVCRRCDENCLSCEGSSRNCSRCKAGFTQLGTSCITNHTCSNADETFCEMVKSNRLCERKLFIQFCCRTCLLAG

Furin = Furin (Homo sapiens, UniProt P09958); test: Inhibition of furin-mediated Pseudomonas exotoxin A proteolysis by peptide cleavage reaction
Furin, sequence (P09958 whole entry): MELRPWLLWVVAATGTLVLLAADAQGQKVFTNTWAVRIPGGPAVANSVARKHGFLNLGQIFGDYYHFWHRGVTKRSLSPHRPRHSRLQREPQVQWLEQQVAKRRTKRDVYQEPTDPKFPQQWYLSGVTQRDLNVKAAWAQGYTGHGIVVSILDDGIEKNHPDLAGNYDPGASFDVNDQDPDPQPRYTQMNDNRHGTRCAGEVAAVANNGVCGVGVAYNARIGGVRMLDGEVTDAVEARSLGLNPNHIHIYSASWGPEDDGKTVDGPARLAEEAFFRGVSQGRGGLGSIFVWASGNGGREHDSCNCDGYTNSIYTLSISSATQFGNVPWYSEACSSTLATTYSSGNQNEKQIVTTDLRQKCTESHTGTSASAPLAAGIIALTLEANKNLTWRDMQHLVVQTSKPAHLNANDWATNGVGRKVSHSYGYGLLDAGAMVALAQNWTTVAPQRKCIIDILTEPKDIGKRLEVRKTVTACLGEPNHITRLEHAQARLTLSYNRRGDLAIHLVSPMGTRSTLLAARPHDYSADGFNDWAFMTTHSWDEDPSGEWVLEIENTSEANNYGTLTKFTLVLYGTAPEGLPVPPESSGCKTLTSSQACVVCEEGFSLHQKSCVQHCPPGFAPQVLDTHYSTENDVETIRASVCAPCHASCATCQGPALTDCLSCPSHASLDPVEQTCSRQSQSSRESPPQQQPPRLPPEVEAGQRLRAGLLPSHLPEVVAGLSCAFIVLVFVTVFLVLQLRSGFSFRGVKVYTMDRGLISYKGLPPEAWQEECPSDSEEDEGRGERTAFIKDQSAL

[8] = biological target: T2, Proprotein convertase subtilisin/kexin type 7 (Homo sapiens, UniProt Q16549)
T2 sequence (Q16549 whole entry): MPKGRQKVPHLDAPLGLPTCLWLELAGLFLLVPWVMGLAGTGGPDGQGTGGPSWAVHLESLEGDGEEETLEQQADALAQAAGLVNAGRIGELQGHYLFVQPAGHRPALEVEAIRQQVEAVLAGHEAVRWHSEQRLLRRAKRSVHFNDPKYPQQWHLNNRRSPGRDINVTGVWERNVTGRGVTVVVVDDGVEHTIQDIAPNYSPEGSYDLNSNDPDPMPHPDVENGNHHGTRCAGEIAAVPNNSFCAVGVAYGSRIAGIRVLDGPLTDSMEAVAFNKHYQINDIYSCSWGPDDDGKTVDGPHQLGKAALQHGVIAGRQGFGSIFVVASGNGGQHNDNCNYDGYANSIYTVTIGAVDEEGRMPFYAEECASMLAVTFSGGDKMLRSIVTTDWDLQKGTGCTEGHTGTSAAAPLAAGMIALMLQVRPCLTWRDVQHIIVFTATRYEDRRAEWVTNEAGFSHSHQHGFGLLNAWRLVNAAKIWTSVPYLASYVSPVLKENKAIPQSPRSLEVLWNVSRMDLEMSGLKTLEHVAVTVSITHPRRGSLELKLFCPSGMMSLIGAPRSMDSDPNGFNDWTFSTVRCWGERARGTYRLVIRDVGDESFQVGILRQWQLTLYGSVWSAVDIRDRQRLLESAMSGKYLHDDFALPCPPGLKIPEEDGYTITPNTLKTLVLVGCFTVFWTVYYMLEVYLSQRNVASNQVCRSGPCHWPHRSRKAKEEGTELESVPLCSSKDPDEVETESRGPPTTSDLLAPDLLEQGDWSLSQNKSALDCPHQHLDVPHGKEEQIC

[9] = biological target: T3, Proprotein convertase subtilisin/kexin type 4 (Homo sapiens, UniProt Q6UW60)
T3 sequence (Q6UW60 whole entry): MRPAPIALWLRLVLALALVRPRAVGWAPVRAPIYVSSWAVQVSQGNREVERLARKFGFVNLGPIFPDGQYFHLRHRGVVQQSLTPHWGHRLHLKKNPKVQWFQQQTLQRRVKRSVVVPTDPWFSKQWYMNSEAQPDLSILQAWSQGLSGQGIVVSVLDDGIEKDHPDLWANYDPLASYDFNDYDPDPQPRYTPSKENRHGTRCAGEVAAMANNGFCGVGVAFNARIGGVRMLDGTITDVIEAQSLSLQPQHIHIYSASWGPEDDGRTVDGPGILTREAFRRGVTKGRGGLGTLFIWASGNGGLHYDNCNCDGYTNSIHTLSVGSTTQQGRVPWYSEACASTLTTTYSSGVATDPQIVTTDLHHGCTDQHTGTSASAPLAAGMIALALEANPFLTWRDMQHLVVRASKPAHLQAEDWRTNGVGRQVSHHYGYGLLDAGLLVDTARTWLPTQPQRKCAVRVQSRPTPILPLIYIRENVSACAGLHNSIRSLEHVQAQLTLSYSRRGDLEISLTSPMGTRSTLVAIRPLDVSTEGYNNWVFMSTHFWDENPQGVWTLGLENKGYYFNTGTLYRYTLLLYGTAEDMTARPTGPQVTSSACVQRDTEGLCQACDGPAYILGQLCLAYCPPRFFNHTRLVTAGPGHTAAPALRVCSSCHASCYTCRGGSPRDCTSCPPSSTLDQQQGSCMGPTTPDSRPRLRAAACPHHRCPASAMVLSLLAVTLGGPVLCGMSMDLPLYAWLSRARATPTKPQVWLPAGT

U-251 [10] = test: Inhibition of proprotein convertase-mediated anthrax protective antigen-83 processing in human U251 cells at 20 uM by Western blot; format: cell-based; conditions: Bacillus anthracis
RAW264.7 = test: Cytotoxicity against mouse RAW264.7 cells =< 0.5 mM after 4 hrs by MTT assay; format: cell-based; conditions: raw264.7, 4 h

O=C(O)c1cn(C2CC2)c2cc(N3CCNCC3)c(F)cc2c1=O [CIPROFLOXACIN]
Survival (Bacillus anthracis [1]): 6 days

C[C@H](NC(=O)[C@H](CCCNC(=N)N)NC(=O)[C@@H]1CCCN1C(=O)[C@@H](NC(=O)CCN)[C@@H](C)O)C(=O)N[C@@H](CCCNC(=N)N)C(=O)N[C@@H](CCCNC(=N)N)C(=O)N[C@@H](CCCNC(=N)N)C(=O)N[C@@H](CCCCN)C(=O)N[C@@H](CCCCN)C(=O)N[C@@H](CCCNC(=N)N)C(=O)N[C@H](C(N)=O)[C@@H](C)O (H-[βAla]TPRARRRKKRT-NH2)
Activity (Bacillus anthracis [2]): 40%
Survival (Bacillus anthracis [3]): 6.63 days

H-TPRARRRKKRT-NH2
survival at 12.5 mg/kg (Mus musculus): 60%
Activity (U-251 [4]): Active
Ki [5]: 232 nM
Activity (U-251 [6]): Active
Ki [7]: 162 nM
Activity (Furin): Active
Ki [8]: 135 nM
Ki [9]: 441 nM
Activity (U-251 [10]): Active
Activity (RAW264.7): Non-toxic
